In patent US12568967B2, “Compositions comprising pyridine carboxylate herbicides with synthetic auxin herbicides or auxin transport inhibitors” (priority 2018, dated 2026):

What was measured:
[1] = test system: Sinapis arvensis (wild mustard, SINAR); assay: Greenhouse postemergence trial SINAR; type: in vivo; conditions: SINAR
[2] = test system: Chenopodium album L. (common lambsquarters, CHEAL); assay: Greenhouse postemergence trial CHEAL; type: in vivo; conditions: for % visual injury (Obs): CHEAL, alone 280 g/ha;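 for all read-outs here: greenhouse plants sprayed at second to third true leaf stage, injury rated by eye after 20-22 d versus solvent-blank sprayed controls, 0 = no injury, 100 = complete kill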
[3] = test system: Hordeum vulgare (spring barley, HORVS); type: in vivo; conditions: HORVS; for % visual injury (Obs): alone 280 g/ha
[4] = test system: Cirsium arvense (Canadian thistle, CIRAR); assay: Greenhouse postemergence trial CIRAR; type: in vivo
[5] = test system: Helianthus annuus (common sunflower, HELAN); assay: Greenhouse postemergence trial HELAN; type: in vivo; conditions: MCPA EHE 280 g/ha (Table 41)
[6] = test system: Amaranthus retroflexus (pigweed, AMARE); assay: Greenhouse postemergence trial AMARE; type: in vivo; conditions: for % visual injury (Obs): AMARE, alone 280 g/ha;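 for all read-outs here: Greenhouse-grown plants sprayed at second to third true leaf stage, injury rated by eye after 20-22 d versus solvent-blank sprayed controls, 0 = no injury, 100 = complete kill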
[7] = test system: Glycine max (volunteer soybean, GLXMA); assay: Greenhouse postemergence trial GLXMA; type: in vivo; conditions: MCPA EHE 280 g/ha (Table 41)
[8] = test system: Rumex obtusifolius (broad-leaf dock, RUMOB); assay: Greenhouse postemergence trial RUMOB; type: in vivo; conditions: MCPA EHE 280 g/ha (Table 41)
Method: (§1) Seeds of the desired test plant species were planted in a 90:10% v/v (volume/volume) mixture of PRO-MIX® BX (Premier Tech Horticulture, Quakertown, PA, USA) and PROFILE® GREENS GRADE™ (Profile Products LLC, Buffalo Grove, IL, USA) planting mixture, which typically has a pH of 5.2 to 6.2 and an organic matter content of at least 50 percent, in plastic pots with a surface area of 103.2 square centimeters (cm^2). […] The plants were grown for 7-36 days (d) in a greenhouse with an approximate 14-hour (h) photo-period which was maintained at about 23° C. during the day and 22° C. during the night. Nutrients and water were added on a regular basis and supplemental lighting was provided with overhead metal halide 1000-Watt lamps as necessary. The plants were employed for testing when they reached the second or third true leaf stage.
(§2) Emulsifiable concentrates of each of each pyridine carboxylate herbicide (Compound A or Compound B) were prepared at 100 grams acid equivalent per liter (g ae/L). The emulsifiable concentrates also included a safener, cloquintocet-mexyl, at 120 grams active ingredient per liter (g ai/L), unless otherwise noted below. An aliquot of each emulsifiable concentrate was placed in a 25 mL glass vial and diluted with an aqueous mixture of 1.25% (v/v) ACTIROB® B esterified rapeseed oil (Bayer Crop Science, Research Triangle Park, NC, USA) or MSO® Concentrate with LECI-TECH® methylated soybean oil (Loveland Products, Loveland, CO, USA) to obtain concentrated stock solutions at the highest application rate for each herbicide, based upon a 12 milliliter (mL) application volume at a rate of 187 liters per hectare (L/ha). The concentrated stock solutions were further diluted with an aqueous mixture of 1.25% v/v ACTIROB® B or MSO® Concentrate with LECI-TECH® to obtain stock solutions at reduced application rates for each herbicide. Spray solutions of the herbicide combinations (Compound A or Compound B plus synthetic auxin herbicide or auxin transport inhibitor) were prepared by adding weighed amounts or aliquots of the synthetic auxin herbicide or auxin transport inhibitor to the stock solutions of Compound A or Compound B to form 12-mL spray solutions in two-way combinations.
(§3) The spray solutions were applied to the plant material with an overhead Mandel track sprayer equipped with 8002E nozzles calibrated to deliver 187 L/ha over an application area of 0.503 square meters (m^2) at a spray height of 18 inches (43 centimeters (cm)) above the average plant canopy. Control plants were sprayed in the same manner with the solvent blank. All pyridine carboxylate herbicide (component a) application rates are given as “g ae/ha” and all synthetic auxin herbicide or auxin transport inhibitor (component b) application rates are given as “g ai/ha.”
(§4) The treated plants and control plants were placed in a greenhouse as described above and watered by sub-irrigation to prevent wash-off of the test compounds. After 20-22 d, the condition of the test plants as compared with that of the control plants was determined visually and scored on a scale of 0 to 100 percent where 0 corresponds to no injury and 100 corresponds to complete kill.

[9] = test system: Stellaria media (chickweed, STEME); assay: Greenhouse postemergence trial STEME; type: in vivo
[10] = test system: Brassica napus (winter rape, BRSNW); assay: Greenhouse postemergence trial BRSNW; type: in vivo
[11] = test system: Polygonum convolvulus (wild buckwheat, POLCO); assay: Greenhouse postemergence trial POLCO; type: in vivo; conditions: for % visual injury (Obs): alone 280 g/ha
Method: as §1, §2, §3, §4

[12] = test system: Viola tricolor (wild pansy, VIOTR); assay: Greenhouse postemergence trial VIOTR;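 note: greenhouse plants sprayed at second to third true leaf stage, injury rated visually after 20-22 d against solvent-blank sprayed controls, 0 meaning no injury and 100 complete kill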
[13] = test system: Ipomoea hederacea (ivyleaf morningglory, IPOHE); assay: Greenhouse postemergence trial IPOHE; type: in vivo; conditions: MCPA EHE 280 g/ha (Table 41)
Method: as §1, §2, §3, §4

[14] = test system: Matricaria chamomilla (wild chamomile, MATCH); assay: Greenhouse postemergence trial MATCH; type: in vivo; conditions: for % visual injury (Obs): alone 280 g/ha;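 for all read-outs here: greenhouse plants sprayed at second to third true leaf stage, injury rated by eye 20-22 d later versus solvent-blank controls on 0–100 scale, 0 no injury, 100 complete kill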
Method: (§5) The plants were grown for 7-36 days (d) in a greenhouse with an approximate 14-hour (h) photo-period which was maintained at about 23° C. during the day and 22° C. during the night. Nutrients and water were added on a regular basis and supplemental lighting was provided with overhead metal halide 1000-Watt lamps as necessary. The plants were employed for testing when they reached the second or third true leaf stage.
(§6) The emulsifiable concentrates also included a safener, cloquintocet-mexyl, at 120 grams active ingredient per liter (g ai/L), unless otherwise noted below.
(§7) Control plants were sprayed in the same manner with the solvent blank. All pyridine carboxylate herbicide (component a) application rates are given as “g ae/ha” and all synthetic auxin herbicide or auxin transport inhibitor (component b) application rates are given as “g ai/ha.”
as §4

[15] = test system: Abutilon theophrasti (velvetleaf, ABUTH); assay: Greenhouse postemergence trial ABUTH; type: in vivo; conditions: MCPA EHE 280 g/ha (Table 41)
[16] = test system: Triticum aestivum (spring wheat, TRZAS); type: in vivo; conditions: TRZAS; for % visual injury (Obs): alone 280 g/ha
[17] = test system: Kochia scoparia (kochia, KCHSC); assay: Greenhouse postemergence trial KCHSC; type: in vivo; conditions: for % visual injury (Obs): alone 280 g/ha
[18] = test system: Salsola kali (Russian thistle, SASKR); assay: Greenhouse postemergence trial SASKR; type: in vivo; conditions: SASKR;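 note: greenhouse plants sprayed at second or third true leaf stage, injury rated by eye after 20-22 d against solvent-blank controls, 0 meaning no injury, 100 complete kill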
Method: as §5, §6, §7, §4

[19] = test system: Hordeum vulgare (winter barley, HORVW); assay: Greenhouse postemergence crop phytotoxicity HORVW; type: in vivo; conditions: HORVW; alone, 560 g/ha
Method: as §1, §2, §3, §4

[20] = test system: Veronica persica (bird's-eye speedwell, VERPE); assay: Greenhouse postemergence trial VERPE; type: in vivo
Method: as §1, §2, §3, §4

[21] = test system: Cyanus segetum (cornflower, CENCY); assay: Greenhouse postemergence trial CENCY; type: in vivo; conditions: Centaurea cyanus, post-emergence; CENCY; alone, 560 g/ha; read-out: % visual injury Obs
[22] = test system: Brassica napus (spring rape, BRSNN); assay: Greenhouse postemergence trial BRSNN; type: in vivo; conditions: BRSNN; alone 280 g/ha
[23] = test system: Viola arvensis (field violet, VIOAR); assay: Greenhouse postemergence trial VIOAR; type: in vivo; conditions: Viola arvensis, post-emergence; VIOAR; alone, 560 g/ha; read-out: % visual injury Obs
Method: as §1, §2, §3, §4

[24] = test system: Lamium purpureum (purple deadnettle, LAMPU); assay: Greenhouse postemergence trial LAMPU; conditions: Lamium purpureum, post-emergence, read-out: % visual injury Obs
[25] = test system: Matricaria discoidea (pineapple weed, MATMT); assay: Greenhouse postemergence trial MATMT; type: in vivo
[26] = test system: Papaver rhoeas (corn poppy), herbicide-resistant (PAPRH-R); assay: Greenhouse postemergence trial PAPRH-R; type: in vivo
Method: as §1, §2, §3, §4

[27] = test system: Papaver rhoeas (corn poppy, PAPRH); assay: Greenhouse postemergence trial PAPRH; type: in vivo; conditions: Papaver rhoeas, post-emergence; PAPRH; alone, 560 g/ha; read-out: % visual injury Obs
Method: as §1, §2, §3, §4

[28] = test system: Capsella bursa-pastoris (shepherd's purse, CAPBP); assay: Greenhouse postemergence trial CAPBP; type: in vivo; conditions: Capsella bursa-pastoris, post-emergence; CAPBP; alone, 560 g/ha; read-out: % visual injury Obs
[29] = test system: Matricaria inodora (false chamomile, MATIN); assay: Greenhouse postemergence trial MATIN; type: in vivo; conditions: Tripleurospermum inodorum, post-emergence; MATIN; alone, 560 g/ha; read-out: % visual injury Obs
[30] = test system: Triticum aestivum (winter wheat, TRZAW); assay: Greenhouse postemergence crop phytotoxicity TRZAW; type: in vivo; conditions: TRZAW; alone, 560 g/ha
[31] = test system: Veronica hederifolia (ivyleaf speedwell, VERHE); assay: Greenhouse postemergence trial VERHE; type: in vivo
[32] = test system: Anthemis arvensis (field chamomile, ANTAR); assay: Greenhouse postemergence trial ANTAR; type: in vivo; conditions: Anthemis arvensis, post-emergence; ANTAR; alone, 560 g/ha; read-out: % visual injury Obs
Method: as §1, §2, §3, §4

CCCCC(CC)COC(=O)COc1ccc(Cl)cc1C (stereo not shown) [MCPA EHE]
% visual injury (Obs) ([1]; alone 280 g/ha): 80% | % visual injury (Obs) [2]: 70% | CHEAL % visual injury Obs ([2]; MCPA EHE 280 g/ha (Table 41)): 73% | % visual injury (Obs) [3]: 0% | % visual injury (Obs) ([4]; CIRAR, alone 280 g/ha): 20% | CIRAR % visual injury Obs ([4]; MCPA EHE 280 g/ha (Table 41)): 23% | HELAN % visual injury Obs [5]: 90% | % visual injury (Obs) [6]: 50% | AMARE % visual injury Obs ([6]; MCPA EHE 280 g/ha (Table 41)): 30% | GLXMA % visual injury Obs [7]: 30% | RUMOB % visual injury Obs [8]: 25% | STEME % visual injury Obs ([9]; MCPA EHE 280 g/ha (Table 41)): 0% | % visual injury (Obs) ([10]; BRSNW, alone 280 g/ha): 60% | POLCO % visual injury Obs ([11]; MCPA EHE 280 g/ha (Table 41)): 0% | % visual injury (Obs) ([11]; POLCO): 10% | VIOTR % visual injury Obs ([12]; MCPA EHE 280 g/ha (Table 41)): 0% | IPOHE % visual injury Obs [13]: 78% | % visual injury (Obs) ([14]; MATCH): 20% | ABUTH % visual injury Obs [15]: 5% | % visual injury (Obs) [16]: 0% | % visual injury (Obs) ([17]; KCHSC): 10% | KCHSC % visual injury Obs ([17]; MCPA EHE 280 g/ha (Table 41)): 0%

O=C(O)COc1nc(Cl)c(Cl)cc1Cl [Triclopyr]
% visual injury (Obs) ([18]; alone 280 g/ha): 45% | pest or weed control at 560 g/ha ([18]; Salsola kali, post-emergence, alone, 560 g/ha, read-out: % visual injury Obs): 50% | % visual injury Obs [19]: 0% | pest or weed control at 560 g/ha ([1]; Mutarda arvensis, post-emergence, alone, 560 g/ha, read-out: % visual injury Obs): 100% | VERVE % visual injury Obs ([20]; Triclopyr 45 g/ha (Table 39)): 0% | VERVE % visual injury Obs ([20]; Triclopyr 60 g/ha (Table 39)): 0% | pest or weed control at 560 g/ha ([20]; Veronica persica, post-emergence, VERPE, alone, 560 g/ha, read-out: % visual injury Obs): 60% | % visual injury (Obs) [2]: 53% | % visual injury (Obs) [3]: 0% | % visual injury Obs ([3]; alone, 560 g/ha): 0% | pest or weed control at 560 g/ha ([4]; Cirsium arvense, post-emergence, CIRAR, alone, 560 g/ha, read-out: % visual injury Obs): 75% | pest or weed control at 560 g/ha [21]: 100% | % visual injury (Obs) [6]: 45% | pest or weed control at 560 g/ha ([9]; Stellaria media, post-emergence, STEME, alone, 560 g/ha, read-out: % visual injury Obs): 30% | plant injury at 560 g/ha ([10]; Brassica napus, post-emergence, BRSNW, alone, 560 g/ha, read-out: % visual injury Obs): 60% | BRSNW % visual injury Obs ([10]; Triclopyr 45 g/ha (Table 39)): 10% | BRSNW % visual injury Obs ([10]; Triclopyr 60 g/ha (Table 39)): 10% | % visual injury (Obs) [22]: 50% | pest or weed control at 560 g/ha ([11]; Fallopia convolvulus, post-emergence, POLCO, alone, 560 g/ha, read-out: % visual injury Obs): 30% | % visual injury (Obs) ([11]; POLCO): 13% | pest or weed control at 560 g/ha [23]: 25% | pest or weed control at 560 g/ha ([12]; Viola tricolor, post-emergence, read-out: % visual injury Obs): 70% | pest or weed control at 560 g/ha [24]: 65% | pest or weed control at 560 g/ha ([25]; Matricaria discoidea, post-emergence, MATMT, alone, 560 g/ha, read-out: % visual injury Obs): 10% | MATMT % visual injury Obs ([25]; Triclopyr 45 g/ha (Table 39)): 20% | MATMT % visual injury Obs ([25]; Triclopyr 60 g/ha (Table 39)): 25% | pest or weed control at 560 g/ha ([26]; Papaver rhoeas, post-emergence, PAPRH-R, alone, 560 g/ha, read-out: % visual injury Obs): 50% | PAPRH-R % visual injury Obs ([26]; Triclopyr 45 g/ha (Table 39)): 10% | PAPRH-R % visual injury Obs ([26]; Triclopyr 60 g/ha (Table 39)): 10% | pest or weed control at 560 g/ha [27]: 20% | pest or weed control at 560 g/ha [28]: 75% | % visual injury (Obs) ([14]; MATCH): 5% | pest or weed control at 560 g/ha ([14]; Matricaria chamomilla, post-emergence, MATCH, alone, 560 g/ha, read-out: % visual injury Obs): 40% | MATCH % visual injury Obs ([14]; Triclopyr 45 g/ha (Table 39)): 10% | MATCH % visual injury Obs ([14]; Triclopyr 60 g/ha (Table 39)): 10% | pest or weed control at 560 g/ha [29]: 0% | % visual injury Obs [30]: 0% | % visual injury (Obs) [16]: 0% | % visual injury Obs ([16]; alone, 560 g/ha): 0% | pest or weed control at 560 g/ha ([17]; Bassia scoparia, post-emergence, KCHSC, alone, 560 g/ha, read-out: % visual injury Obs): 75% | % visual injury (Obs) ([17]; KCHSC): 23% | VERHE % visual injury Obs ([31]; Triclopyr 45 g/ha (Table 39)): 10% | VERHE % visual injury Obs ([31]; Triclopyr 60 g/ha (Table 39)): 15% | pest or weed control at 560 g/ha ([31]; Veronica hederifolia, post-emergence, VERHE, alone, 560 g/ha, read-out: % visual injury Obs): 65% | pest or weed control at 560 g/ha [32]: 40%
